Our source for the IC50 values is patent US12319679B2, “Morpholinyl, piperazinyl, oxazepanyl and diazepanyl O-glycoprotein-2-acetamido-2-deoxy-3-d-glucopyranosidase inhibitors” (BIOGEN MA INC., priority 2018, dated 2025).

The assay addresses T1, Recombinant full length human OGA enzyme (Homo sapiens, UniProt O60502).
T1 construct: Recombinant full length human OGA enzyme was purchased from Origene; purchased Origene
T1 sequence (O60502 1-916): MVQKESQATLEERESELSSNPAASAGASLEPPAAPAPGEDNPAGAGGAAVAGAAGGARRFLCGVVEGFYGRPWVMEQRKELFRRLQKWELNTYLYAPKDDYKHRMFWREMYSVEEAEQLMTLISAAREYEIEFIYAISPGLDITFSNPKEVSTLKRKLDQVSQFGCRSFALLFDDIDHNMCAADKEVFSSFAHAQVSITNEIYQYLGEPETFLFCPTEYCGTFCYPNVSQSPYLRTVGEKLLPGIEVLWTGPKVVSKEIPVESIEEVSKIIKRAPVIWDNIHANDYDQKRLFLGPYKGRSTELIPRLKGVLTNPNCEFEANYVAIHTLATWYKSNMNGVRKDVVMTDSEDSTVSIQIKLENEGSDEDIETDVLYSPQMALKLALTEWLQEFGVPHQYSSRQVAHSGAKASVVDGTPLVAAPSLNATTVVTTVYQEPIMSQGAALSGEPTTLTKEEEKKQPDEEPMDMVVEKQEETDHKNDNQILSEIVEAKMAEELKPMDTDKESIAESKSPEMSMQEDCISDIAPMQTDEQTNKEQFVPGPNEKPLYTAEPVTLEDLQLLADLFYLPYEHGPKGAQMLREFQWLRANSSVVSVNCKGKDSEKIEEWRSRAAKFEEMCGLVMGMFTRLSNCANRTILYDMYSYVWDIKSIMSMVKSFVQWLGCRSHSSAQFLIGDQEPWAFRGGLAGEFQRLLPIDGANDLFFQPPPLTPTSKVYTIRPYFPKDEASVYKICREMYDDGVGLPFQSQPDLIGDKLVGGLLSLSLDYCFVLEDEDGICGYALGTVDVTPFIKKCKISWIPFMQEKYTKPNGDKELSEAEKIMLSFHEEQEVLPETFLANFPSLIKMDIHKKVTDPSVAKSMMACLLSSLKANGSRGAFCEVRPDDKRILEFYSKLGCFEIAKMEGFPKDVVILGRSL
Kind of assay: OGA Enzyme Inhibition Biochemical Assay. The note with it: 1 nM OGA, 100 μM 4-MUGlcNAc (Km), pH 6.4, 90 minutes at room temperature; 10-point dose-response starting from 20 μM. On the procedure:
OGA Enzyme Inhibition Biochemical Assay
Recombinant full length human OGA enzyme was purchased from Origene. 4-MUGlCNAc substrate was purchased from Sigma. All other reagents were purchased from Sigma or Fisher. Assay buffer consists of the McIlvaine buffer system, pH 6.4 (0.2M Na2HPO4 mixed with 0.1M citric acid) and 0.01% BSA. Reactions consist of 1 nM OGA, 100 μM 4-MUGlcNAc (Km), and compound in a final volume of 10 μl. Reactions were incubated for 90 minutes at room temperature and quenched with 40 μl of 3M glycine, pH 10 and read on a Perkin Elmer Envision plate reader (Ex: 355 nm/Em: 460 nm). Compounds were tested with a 10-point dose-response starting from 20 μM with a 4-fold dilution. Data was fit using GraphPad Prism using a 4-paramter fit with variable slope.

Usually IC50 stands for the concentration that inhibits the measured activity by half. Take `CC(=O)Nc1ncc(CN2C[C@@H](Cc3ncc(F)cn3)O[C@@H](C)C2)s1` (racemic) [Example 1-34, N-(5-(((cis)-2-((5-fluoropyrimidin-2-yl)methyl)-6-methylmorpholino)methyl)thiazol-2-yl)acetamide]: the IC50 was 680 nM. The same measure for `CC(=O)Nc1ncc(CN2CCCOC(Cc3cc(C)nc(C)c3)C2)s1` (racemic) [Example 1-36, N-(5-((2-((2,6-dimethylpyridin-4-yl)methyl)-1,4-oxazepan-4-yl)methyl)thiazol-2-yl)acetamide]: 57 nM.

On to `CC(=O)Nc1ncc(CN2CCCOC(Cc3ncc(F)cn3)C2)s1` (racemic) [Example 1-38, N-(5-((2-((5-fluoropyrimidin-2-yl)methyl)-1,4-oxazepan-4-yl)methyl)thiazol-2-yl)acetamide], for which the IC50 came out at 45 nM.

With `COc1cc(CC2CN(Cc3cnc(NC(C)=O)s3)CCCO2)ccn1` (racemic) [Example 1-40, N-(5-((2-((2-methoxypyridin-4-yl)methyl)-1,4-oxazepan-4-yl)methyl)thiazol-2-yl)acetamide], the IC50 was 99 nM. As for `CC(=O)Nc1ncc(CN2CCOCC(Cc3cc(C)nc(C)c3)C2)s1` (racemic) [Example 1-42, N-(5-((6-((2,6-dimethylpyridin-4-yl)methyl)-1,4-oxazepan-4-yl)methyl)thiazol-2-yl)acetamide], the IC50 worked out at 19 nM. For `CC(=O)Nc1ncc(CN2CCOCC(Cc3ncc(F)cn3)C2)s1` (racemic) [Example 1-44, N-(5-((6-((5-fluoropyrimidin-2-yl)methyl)-1,4-oxazepan-4-yl)methyl)thiazol-2-yl)acetamide], the IC50 was 32 nM. Turning to `COc1cc(CC2COCCN(Cc3cnc(NC(C)=O)s3)C2)ccn1` (racemic) [Example 1-46, N-(5-((6-((2-methoxypyridin-4-yl)methyl)-1,4-oxazepan-4-yl)methyl)thiazol-2-yl)acetamide], the half-maximal inhibitory concentration (IC50) turned out to be 42 nM. On to `CC(=O)Nc1ncc(C(C)N2CCO[C@H](Cc3ncc(F)cn3)C2)s1` (single isomer, unassigned) [Example 1-23 Peak 1], for which the IC50 is 19 nM. For the compound `CC(=O)Nc1ncc(C(C)N2CCO[C@H](Cc3ncc(F)cn3)C2)s1` (single isomer, unassigned) [Example 1-23 Peak 2], the IC50 is 360 nM. Take `CC(=O)Nc1ncc(CN2CCOC(C(C)c3ncc(F)cn3)C2)s1` (single isomer, unassigned) [Example 1-25 Peak 1]: the IC50 amounted to 5.3 nM. The same measure for `CC(=O)Nc1ncc(CN2CCOC(C(C)c3ncc(F)cn3)C2)s1` (single isomer, unassigned) [Example 1-25 Peak 2]: 73 nM; for `CC(=O)Nc1ncc(CN2CCOC(C(C)c3ncc(F)cn3)C2)s1` (single isomer, unassigned) [Example 1-25 Peak 3]: 160 nM.

As to `CC(=O)Nc1ncc(CN2CCOC(C(C)c3ncc(F)cn3)C2)s1` (single isomer, unassigned) [Example 1-25 Peak 4], the IC50 was 1300 nM. As for `CC(=O)Nc1ncc(CN2CC(C)OC(Cc3ncc(F)cn3)C2)s1` (single isomer, unassigned) [Example 1-35 Peak 1], the IC50 turned out to be 560 nM. `CC(=O)Nc1ncc(CN2CCCOC(Cc3cc(C)nc(C)c3)C2)s1` (single isomer, unassigned) [Example 1-37 Peak 1]: the IC50 is 31 nM.

`CC(=O)Nc1ncc(CN2CCCOC(Cc3cc(C)nc(C)c3)C2)s1` (single isomer, unassigned) [Example 1-37 Peak 2]: the IC50 came to 110 nM. The same measure for `CC(=O)Nc1ncc(CN2CCCOC(Cc3ncc(F)cn3)C2)s1` (single isomer, unassigned) [Example 1-39 Peak 1]: 20 nM. The same measure for `CC(=O)Nc1ncc(CN2CCCOC(Cc3ncc(F)cn3)C2)s1` (single isomer, unassigned) [Example 1-39 Peak 2]: 760 nM; for `COc1cc(CC2CN(Cc3cnc(NC(C)=O)s3)CCCO2)ccn1` (single isomer, unassigned) [Example 1-41 Peak 1]: 39 nM; for `COc1cc(CC2CN(Cc3cnc(NC(C)=O)s3)CCCO2)ccn1` (single isomer, unassigned) [Example 1-41 Peak 2]: 270 nM. As for `CC(=O)Nc1ncc(CN2CCOCC(Cc3cc(C)nc(C)c3)C2)s1` (single isomer, unassigned) [Example 1-43 Peak 1], the IC50 amounted to 19 nM. For the compound `CC(=O)Nc1ncc(CN2CCOCC(Cc3cc(C)nc(C)c3)C2)s1` (single isomer, unassigned) [Example 1-43 Peak 2], the IC50 worked out at 38 nM.

For `CC(=O)Nc1ncc(CN2CCOCC(Cc3ncc(F)cn3)C2)s1` (single isomer, unassigned) [Example 1-45 Peak 1], the IC50 came to 1600 nM. Consider `CC(=O)Nc1ncc(CN2CCOCC(Cc3ncc(F)cn3)C2)s1` (single isomer, unassigned) [Example 1-45 Peak 2], for which the IC50 came to 14 nM. Turning to `COc1cc(CC2COCCN(Cc3cnc(NC(C)=O)s3)C2)ccn1` (single isomer, unassigned) [Example 1-47 Peak 1], the IC50 came out at 1000 nM. `COc1cc(CC2COCCN(Cc3cnc(NC(C)=O)s3)C2)ccn1` (single isomer, unassigned) [Example 1-47 Peak 2]: the IC50 stood at 17 nM.

Consider `CC(=O)Nc1ncc(CN2CCNC(Cc3ncc(F)cn3)C2)s1` (single isomer, unassigned) [Example 2-20 Peak 1], for which the IC50 worked out at 560 nM. As to `CC(=O)Nc1ncc(CN2CCNC(Cc3ncc(F)cn3)C2)s1` (single isomer, unassigned) [Example 2-20 Peak 2], the IC50 is over 20000 nM. As for `COc1cc(CC2CN(Cc3cnc(NC(C)=O)s3)CCN2)ccn1` (single isomer, unassigned) [Example 2-22 Peak 1], the IC50 amounted to 18000 nM. Consider `COc1cc(CC2CN(Cc3cnc(NC(C)=O)s3)CCN2)ccn1` (single isomer, unassigned) [Example 2-22 Peak 2], for which the IC50 amounted to 850 nM. The same measure for `COc1cc(CC2CN(Cc3cnc(NC(C)=O)s3)CCN2)ccc1F` (single isomer, unassigned) [Example 4-6 Peak 1]: 11000 nM. As for `COc1cc(CC2CN(Cc3cnc(NC(C)=O)s3)CCN2)ccc1F` (single isomer, unassigned) [Example 4-6 Peak 2], the IC50 was 4100 nM. In the case of `CC(=O)Nc1ncc(CN2CCNC(Cc3ccnc(C)c3)C2)s1` (single isomer, unassigned) [Example 4-8 Peak 1], the IC50 is 6700 nM. On to `CC(=O)Nc1ncc(CN2CCNC(Cc3ccnc(C)c3)C2)s1` (single isomer, unassigned) [Example 4-8 Peak 2], for which the IC50 was determined as 490 nM. For `COc1cc(CC2CN(Cc3cnc(NC(C)=O)s3)CCN2C)ccn1` (single isomer, unassigned) [Example 4-12 Peak 1], the IC50 came out at 950 nM. With `COc1cc(CC2CN(Cc3cnc(NC(C)=O)s3)CCN2C)ccn1` (single isomer, unassigned) [Example 4-12 Peak 2], the IC50 was over 20000 nM. As for `CC(=O)Nc1ncc(CN2CCNC(Cc3ccc(C)nc3)C2)s1` (single isomer, unassigned) [Example 4-14 Peak 1], the IC50 is over 20000 nM. The same measure for `CC(=O)Nc1ncc(CN2CCNC(Cc3ccc(C)nc3)C2)s1` (single isomer, unassigned) [Example 4-14 Peak 2]: 4400 nM; for `COc1nccc(CC2CN(Cc3cnc(NC(C)=O)s3)CCN2)c1F` (single isomer, unassigned) [Example 4-18 Peak 1]: 14000 nM; for `COc1nccc(CC2CN(Cc3cnc(NC(C)=O)s3)CCN2)c1F` (single isomer, unassigned) [Example 4-18 Peak 2]: 1500 nM. `CC(=O)Nc1ncc(CN2CCO[C@H](Cc3ncc(F)cn3)C2)s1` [Example 1-1, (R)—N-(5-((2-((5-fluoropyrimidin-2-yl)methyl)morpholino)methyl)thiazol-2-yl)acetamide]: the IC50 is 16 nM. For the compound `CC(=O)Nc1ncc(CN2CCO[C@@H](Cc3ncc(F)cn3)C2)s1` [Example 1-2, (S)—N-(5-((2-((5-fluoropyrimidin-2-yl)methyl)morpholino)methyl)thiazol-2-yl)acetamide], the IC50 worked out at 4400 nM.
